According to patent publication US20190322981A1, “MEANS AND METHODS FOR THE GENERATION OF OLIGODENDROCYTES” (Westfaelische Wilhelms-Universitaet Muenster, priority 2016, published 2019):

Key:
[1] = system: iOL (SON-transduced human iPSC-derived NPC); assay: Compound screen: differentiation-promoting effect of drug candidates on iOL (O4 and MBP immunocytochemistry); type: cell-based; conditions: for toxic influence on iOL: at higher concentrations (tested 0.5, 1, 5 μM); for formation of MBP+ mature iOL relative to T3-treated cultures: drug candidate at 0.5, 1, 5 μM; for effect on formation of O4+ iOL compared to DMSO control: T3 60 ng/ml or drug candidate at 0.5, 1, 5 μM
Experimental: For immunocytochemical analysis, an equal volume of 4% PFA in PBS was added to the culture medium and cells were pre-fixed for 10 min at room temperature (RT). After removing the supernatant, cells were fixed for an additional 15 minutes with 4% PFA in PBS and washed three times with PBS. Fixed cells were permeabilized by adding 0.2% Triton X-100 (Sigma) in PBS for 15 min at RT (This step was omitted for NG2, O4 and GalC staining). Subsequently, blocking was performed by incubating the cells with 5% normal goat serum (NGS; Gibco) and 5% fetal calf serum (FCS; Gibco) for 30 min at RT. Primary antibodies were applied overnight at 4° C. in blocking solution. Following three washing steps with PBS, cells were incubated with Alexa Fluor conjugated secondary antibodies diluted in PBS for 1 h at RT. Cells were subsequently washed three times with PBS, including a Hoechst counterstaining for nuclei in the second washing step. Cells on glass coverslips were mounted in Dako Fluorescent Mounting Medium (Dako) and visualized on a Zeiss LSM700 confocal microscope. Cells on plastic cell culture plates were visualized on a Leica DM16000 B inverted microscope.
To assess the sensitivity of iOL towards differentiation promoting drugs, iPSC-derived NPC were transduced with concentrated SON virus particle as described above. Viral medium was removed after 24 h and replaced with GIM lacking T3. The end of the virus infection period was termed day 0. At day 5 of differentiation, cells were detached, singularized and reseeded at densities of 5×10^4 cells in matrigel-coated 48-well plates or 1.5×10^5 cells in 24-well plates containing matrigel-coated glass coverslips. Cells were allowed to recover in minimum DM consisting of DMEM-F12 with 1:200 N2 supplement, 1:100 B27 supplement lacking vitamin A, 1% penicillin/streptomycin/glutamine, 200 μM AA and 100 μM dbcAMP. After 24 h cells were treated with vehicle alone (0.01% (v/v) DMSO) as a negative control, 60 ng/ml T3 as a positive control, or with a drug candidate dissolved in DMSO at three different concentrations (0.5 μM, 1 μM, 5 μM) in minimum DM. The drug candidates comprised miconazole (Sigma), clobetasol (TCI), benztropine (Sigma), indometacin (Sigma), clemastine (Sigma) and oxybutynin (Sigma). Medium was changed every other day and cells were fixed in 4% PFA for immunocytochemical analysis after 21 days of treatment. Investigators were blinded for immunocytochemical analysis.
Identification of drugs inducing remyelination via promotion of oligodendroglial differentiation presents a promising approach for the treatment of demyelinating disorders like MS. Thus, we assessed whether iOL can be utilized to identify compounds promoting oligodendroglial differentiation. We selected six drug candidates (miconazole, clobetasol, benztropine, indometacin, clemastine and oxybutynin) which have been previously described to promote differentiation or myelination of rodent OL^1, 18-20. iOL cultures were treated with either vehicle (0.01% (v/v) DMSO) as a negative control, thyroid hormone (T3) as a positive control, or the drug candidate dissolved in DMSO at three different concentrations (0.5 μM, 1 μM, 5 μM) (FIG. 7a-d).

[2] = system: MAPT-OL (iOL carrying the N279K MAPT mutation); assay: Stress-induced cell death: rotenone on O4+ iOL, cleaved CASPASE 3 / O4 double-staining; type: cell-based, human; conditions: rotenone 100, 250 and 500 nM, 48 h; all results combined, control cultures set to 100%
Experimental: To examine the effect of rotenone (Sigma) on the viability of iOL derived from either N279K MAPT or Ctrl cells O4^+ iOL were purified using the MACS technology after 21 days of differentiation and replated at a density of 8×10^3 cells per well into matrigel-coated 96-well plates. After another 6 days in DM, cells were treated with either vehicle (0.01% (v/v) DMSO) or rotenone dissolved in DMSO at three different concentrations (100 nM, 250 nM, 500 nM). […] Investigators were blinded for immunocytochemical analysis.
After 28 days of differentiation, O4^+ iOL harboring the N279K mutation (MAPT-OL) were morphologically indistinguishable from their gene corrected control cell lines (MAPT-GC-OL) (FIG. 7e) and featured similar differentiation efficiencies among all cell lines included (FIG. 7f). We next set out to investigate whether the N279K MAPT mutation induces an altered expression of TAU isoforms in iOL. We purified O4^+ iOL using FACS before RNA sample preparation. […] FTDP-17 patients display widespread neurodegeneration due to increased cellular vulnerability. […]

N[C@@H](Cc1cc(I)c(Oc2ccc(O)c(I)c2)c(I)c1)C(=O)O [T3, Triiodo-L-Thyronine]
O4+ cells ([1]; 60 ng/ml T3 (positive control), minimum DM, 21 days, DMSO control 14.01±2.89%): 28.25±3.47%

C=C(C)[C@H]1Cc2c(ccc3c2O[C@@H]2COc4cc(OC)c(OC)cc4[C@@H]2C3=O)O1 [rotenone]
average increase of cell death (cleaved CASPASE-3+ iOL) in MAPT-OL [2]: 48.9±18.7%

CN1[C@@H]2CC[C@H]1C[C@@H](OC(c1ccccc1)c1ccccc1)C2 [benztropine]
toxic influence on iOL ([1]; 21 days): toxic influence | formation of MBP+ mature iOL relative to T3-treated cultures ([1]; minimum DM, 21 days): comparable to T3-treated cultures

CCN(CC)CC#CCOC(=O)C(O)(c1ccccc1)C1CCCCC1 (stereo not drawn) [oxybutynin]
effect on formation of O4+ iOL compared to DMSO control ([1]; minimum DM, 21 days): failed to promote the formation of O4^+ iOL

C[C@H]1C[C@H]2[C@@H]3CCC4=CC(=O)C=C[C@]4(C)[C@@]3(F)[C@@H](O)C[C@]2(C)[C@@]1(O)C(=O)CCl [clobetasol]
formation of MBP+ mature iOL relative to T3-treated cultures ([1]; minimum DM, 21 days): comparable to T3-treated cultures

Clc1ccc(COC(Cn2ccnc2)c2ccc(Cl)cc2Cl)c(Cl)c1 (stereo not drawn) [miconazole]
increase of MBP+ cells compared to DMSO control cultures ([1]; 1 μM, minimum DM, 21 days): almost tenfold increase | toxic influence on iOL ([1]; 21 days): toxic influence | toxic effect on iOL ([1]; fivefold higher concentration than the effective 1 μM): toxic effect | differentiation-promoting effect on iOL, ranked among the tested compounds ([1]; six drug candidates compared): strongest effect on iOL

CN1CCC[C@@H]1CCO[C@](C)(c1ccccc1)c1ccc(Cl)cc1 [clemastine]
effect on formation of O4+ iOL compared to DMSO control ([1]; minimum DM, 21 days): failed to promote the formation of O4^+ iOL | toxic influence on iOL ([1]; 21 days): toxic influence
